We go through 12 molecules from ChEMBL document CHEMBL1201862, “PubChem BioAssay data set” (2004).

Molecules are shown by their SMILES.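 Protocol summary: plate cells (96-well), add compound at 5 concentrations, incubate 48 h, interpolate endpoints linearly. GI50: concentration for 50% inhibition of growth.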 Active and inactive are the calls of the source. Rule as the data show it: active = GI50 up to about 1.1 µM and inactive = higher. *1 amine or outer side, *2 acyl side, *3 side chain or, on linkers, in order; H or OH if unused. Where a SMILES comes first, the peptide text is derived from it. The star is where a group is joined. γGlu = O=C(O)[CH](CCC(=O)[*:2])N[*:1]; NHOH = ON* Bounds are passed on as bounds.

Some test systems named below: A498; A549; HCT-15; Hs-578T; K562; KM12; LOX IMVI; MDA-MB-231; NCI-H23; NCI-H460; OVCAR-5; OVCAR-8; SK-MEL-5; SNB-75; SR; SW-620; TK-10; T47D; UO-31.
Common to all, as to experiment: inhibition of tumour cell growth, NCI panel, 48 h

Turning to `CCOP1(=O)CC(C)=C(Cl)C(OC)C1` (stereo unspecified), the GI50 is > 100 µM (inactive) in the experiment with A498; > 100 µM (inactive) with A549; greater than 100 µM in the experiment with HCT-15; > 100 µM (inactive) in the experiment with Hs-578T; 30.5 µM (inactive) with K562; > 100 µM (inactive) in the experiment with KM12. Besides, the GI50 was 61.7 µM (inactive) in the experiment on LOX IMVI; > 100 µM (inactive) with MDA-MB-231; > 100 µM (inactive) in the experiment with NCI-H23; > 100 µM (inactive) in the experiment on NCI-H460; > 100 µM (inactive) in the experiment on OVCAR-5; > 100 µM (inactive) in the experiment on OVCAR-8. The GI50 with SK-MEL-5, in the experiment with SNB-75, with SR, in the experiment on SW-620 and in the experiment with TK-10 was > 100 µM (inactive) throughout.

Regarding `CNC(=O)Oc1ccc(-c2cn3cc(OC(=O)NC)ccc3n2)cc1`, the GI50 was 66.4 µM (inactive) with A498; 44.1 µM (inactive) with A549; 36.1 µM in the experiment with HCT-15; 22.6 µM (inactive) in the experiment with K562; 44 µM (inactive) in the experiment with KM12; 34.3 µM (inactive) in the experiment on LOX IMVI. Also, the GI50 in the experiment on MDA-MB-231 is > 100 µM (inactive); in the experiment with NCI-H23 it was 87.3 µM (inactive); in the experiment with NCI-H460, 39.4 µM (inactive); in the experiment on OVCAR-5, > 100 µM (inactive); in the experiment with OVCAR-8, 49.9 µM (inactive); with SK-MEL-5 it was 26.7 µM (inactive). For the same molecule, the GI50 with SNB-75 is 62.4 µM (inactive); with SR, 21 µM (inactive); in the experiment with SW-620, 35.1 µM (inactive); with T47D it was 31.3 µM (inactive); with TK-10, 91.6 µM (inactive); with UO-31 it was 26.5 µM (inactive).

Regarding `C[C@@H]1OC(=O)C[C@H]2CC(=O)N(CCC3CN(S(=O)(=O)C(F)(F)F)c4ccccc43)C[C@@H]21` (stereo partly specified), the GI50 with A498 was > 100 µM (inactive); with A549, > 100 µM (inactive); in the experiment on HCT-15, greater than 100 µM; with Hs-578T, 85.1 µM (inactive); in the experiment on K562, > 100 µM (inactive); in the experiment on KM12, > 100 µM (inactive). Further, the GI50 with MDA-MB-231, in the experiment with NCI-H23, with NCI-H460, in the experiment on OVCAR-5, in the experiment on SK-MEL-5 and in the experiment on SR was > 100 µM (inactive) in each case. Moreover, the GI50 with SW-620 and with UO-31 was > 100 µM (inactive) throughout.

Consider `c1ccc2c(c1)NC(C1OC3CCCN3C1C1Nc3ccccc3S1)S2` (stereo unspecified), for which the GI50 was > 100 µM (inactive) in the experiment on A498; > 100 µM (inactive) in the experiment with A549; 48.9 µM with HCT-15; > 100 µM (inactive) in the experiment on Hs-578T; 31 µM (inactive) with K562; 46.5 µM (inactive) with KM12. The GI50 was 29 µM (inactive) in the experiment on NCI-H23; 41.2 µM (inactive) in the experiment on NCI-H460; > 100 µM (inactive) with OVCAR-5; 52.1 µM (inactive) in the experiment with OVCAR-8; 39.6 µM (inactive) in the experiment with SK-MEL-5; 69.7 µM (inactive) in the experiment with SNB-75. Besides, the GI50 in the experiment with SR is 22.3 µM (inactive); with SW-620, > 100 µM (inactive); in the experiment on TK-10, > 100 µM (inactive); with UO-31, 55.1 µM (inactive).

As to `COCN1C(=O)[C@@H]2CCCN2C(=O)c2ccc(N)cc21`, the GI50 is > 100 µM (inactive) in the experiment with A498; > 100 µM (inactive) with A549; greater than 100 µM in the experiment on HCT-15; > 100 µM (inactive) with Hs-578T; > 100 µM (inactive) in the experiment on K562; > 100 µM (inactive) with KM12. The GI50 in the experiment with LOX IMVI, with MDA-MB-231, in the experiment on NCI-H23, in the experiment on NCI-H460, with OVCAR-5 and in the experiment on OVCAR-8 was > 100 µM (inactive) throughout. Moreover, the GI50 with SK-MEL-5, in the experiment with SNB-75, in the experiment with SR, in the experiment on SW-620, in the experiment with TK-10 and in the experiment with UO-31 was > 100 µM (inactive) in each case.

As to `NC(CCC(=O)NC(CCC(=O)NO)C(=O)NCC(=O)O)C(=O)O` (stereo unspecified) (γGlu-Glu(NHOH)-Gly-OH; configuration not given here), the GI50 in the experiment with A498 is > 100 µM (inactive); with A549, > 100 µM (inactive); in the experiment with HCT-15 it was greater than 100 µM; in the experiment on K562, > 100 µM (inactive); with KM12, > 100 µM (inactive); in the experiment on LOX IMVI, > 100 µM (inactive). Further, the GI50 in the experiment with MDA-MB-231, with NCI-H23, in the experiment on NCI-H460, in the experiment with OVCAR-5, with OVCAR-8 and in the experiment with SK-MEL-5 was > 100 µM (inactive) in each case. Moreover, the GI50 with SNB-75, with SW-620, in the experiment with T47D, in the experiment on TK-10 and in the experiment on UO-31 was > 100 µM (inactive) each time.

Turning to `[O-][n+]1c(CN2CCCCC2)nc2cccc3c2c1-c1ccccc1-3`, the GI50 with A498 was 18.2 µM (inactive); with A549, 15.7 µM (inactive); in the experiment with HCT-15 it was 26.9 µM; in the experiment with K562, 77.6 µM (inactive); in the experiment on KM12 it was 26.4 µM (inactive); in the experiment on LOX IMVI, 19.4 µM (inactive). Further, the GI50 with MDA-MB-231 is 23 µM (inactive); in the experiment on NCI-H23, 20.3 µM (inactive); with NCI-H460 it was 18 µM (inactive); in the experiment with OVCAR-5, 21.3 µM (inactive); in the experiment on OVCAR-8, 22.8 µM (inactive); with SK-MEL-5 it was 16.1 µM (inactive). Also, the GI50 is 24.6 µM (inactive) with SNB-75; 43.5 µM (inactive) in the experiment with SR; 28.8 µM (inactive) in the experiment on SW-620; 27.2 µM (inactive) with TK-10; 11.9 µM (inactive) in the experiment with UO-31.

Take `CC(=O)NC(Cc1ccccc1)NC(=O)O` (stereo unspecified): the GI50 with A498 is > 100 µM (inactive); with A549, > 100 µM (inactive); in the experiment on HCT-15 it was greater than 100 µM; in the experiment with K562 it was > 100 µM (inactive); with KM12, > 100 µM (inactive); with LOX IMVI it was > 100 µM (inactive). For the same molecule, the GI50 in the experiment on MDA-MB-231, with NCI-H23, in the experiment on NCI-H460, in the experiment on OVCAR-5, with OVCAR-8 and in the experiment with SK-MEL-5 was > 100 µM (inactive) each time. Besides, the GI50 in the experiment on SNB-75, with SR, in the experiment on SW-620, in the experiment with T47D, with TK-10 and in the experiment on UO-31 was > 100 µM (inactive) in each case.

Turning to `OC[C@H]1CCCC1O` (stereo partly specified), the GI50 is > 100 µM (inactive) with A498; > 100 µM (inactive) in the experiment with A549; greater than 100 µM in the experiment with HCT-15; > 100 µM (inactive) in the experiment on K562; > 100 µM (inactive) with KM12; > 100 µM (inactive) in the experiment with MDA-MB-231. Further, the GI50 in the experiment on NCI-H23 is > 100 µM (inactive); with NCI-H460, > 100 µM (inactive); with OVCAR-5, > 100 µM (inactive); in the experiment with OVCAR-8, > 100 µM (inactive); with SK-MEL-5, > 100 µM (inactive); in the experiment on SNB-75 it was 73.1 µM (inactive). Also, the GI50 in the experiment with SR, in the experiment with SW-620, in the experiment with T47D, in the experiment with TK-10 and in the experiment on UO-31 was > 100 µM (inactive) in each case.

On to `CCOC(=O)C(NC(=O)Nc1ccccc1F)(OC)C(F)(F)F` (stereo unspecified), for which the GI50 is > 100 µM (inactive) with A498; > 100 µM (inactive) in the experiment with A549; greater than 100 µM in the experiment on HCT-15; > 100 µM (inactive) with Hs-578T; > 100 µM (inactive) in the experiment on K562; > 100 µM (inactive) in the experiment on LOX IMVI. Further, the GI50 in the experiment with NCI-H23, with OVCAR-5, in the experiment on OVCAR-8, in the experiment on SK-MEL-5, in the experiment with SNB-75 and in the experiment with SR was > 100 µM (inactive) throughout. For the same molecule, the GI50 in the experiment on SW-620, in the experiment on T47D, with TK-10 and in the experiment on UO-31 was > 100 µM (inactive) in each case.

With `O=P1(O)C=CC2(CCCC2)O1`, the GI50 in the experiment on A498 is > 100 µM (inactive); in the experiment on A549, > 100 µM (inactive); in the experiment on HCT-15 it was greater than 100 µM; with K562 it was > 100 µM (inactive); in the experiment with KM12, > 100 µM (inactive); with LOX IMVI it was > 100 µM (inactive). The GI50 in the experiment with NCI-H23, with NCI-H460, with OVCAR-5, with OVCAR-8, in the experiment with SK-MEL-5 and in the experiment on SNB-75 was > 100 µM (inactive) each time. The GI50 in the experiment with SR, with SW-620, in the experiment on T47D and in the experiment with TK-10 was > 100 µM (inactive) each time.

`C[B@@-]1(c2ccc(C(F)(F)F)cc2)N[C@@H](Cc2ccccc2)C(=O)O1`: the GI50 is > 100 µM (inactive) in the experiment on A498; > 100 µM (inactive) in the experiment with A549; greater than 100 µM in the experiment on HCT-15; > 100 µM (inactive) in the experiment on K562; > 100 µM (inactive) in the experiment on LOX IMVI; > 100 µM (inactive) in the experiment on MDA-MB-231. In addition, the GI50 was > 100 µM (inactive) in the experiment with NCI-H23; > 100 µM (inactive) in the experiment on NCI-H460; > 100 µM (inactive) in the experiment on OVCAR-5; > 100 µM (inactive) in the experiment with OVCAR-8; > 100 µM (inactive) with SK-MEL-5; 31.6 µM (inactive) in the experiment with SNB-75. Further, the GI50 in the experiment on SR is > 100 µM (inactive); in the experiment with SW-620 it was > 100 µM (inactive); in the experiment on T47D, > 100 µM (inactive); in the experiment with TK-10, > 100 µM (inactive); with UO-31, 88.1 µM (inactive).
